{"source": "paper PMC6458850", "about": "“CXXC5 mediates growth plate senescence and is a target for enhancement of longitudinal bone growth” (Life Science Alliance, 2019)", "target": "T1, CXXC5–DVL interaction (Homo sapiens, UniProt O14640)", "T1 sequence (O14640 251-340 limits assumed)": "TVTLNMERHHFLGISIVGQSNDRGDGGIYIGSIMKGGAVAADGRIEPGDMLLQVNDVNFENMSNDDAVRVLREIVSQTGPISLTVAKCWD", "experiment": "In vitro CXXC5–DVL binding assay (FITC-tagged PTD-DBMP on DVL PDZ domain)", "details": "compound 30 μM; fluorescent intensity normalized to DMSO-treated control", "procedure": "After the addition of 10 μM FITC-tagged PTD-DBMP to each well, each compound in the chemical library or control (DMSO) was treated to the well at a final concentration of 30 μM. The fluorescence intensity was measured using a Fluorstar Optima microplate reader (BGM Lab Technologies, Ortenberg, Germany). The binding values were calculated as a percent ratio of the fluorescent intensity normalized to the DMSO-treated control.", "data": [{"molecule": "O=C1Nc2ccccc2/C1=C1/Nc2ccccc2/C1=N\\O", "note": "[Compound 12, indirubin-3′-oxime, reference compound]", "values": [{"measurement": "CXXC5-DVL interaction (%)", "value": 7.65, "unit": "%"}]}]}
